According to PubChem BioAssay (NCI):
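In this assay, cells in 96-well plates receive the compound at five concentrations for 48 hours. Endpoints are linearly interpolated between the surrounding concentrations. GI50: concentration for 50% inhibition of growth. The concentration for full growth arrest is given as TGI.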

Key:
Experiment in all cases: DTP human tumour cell line panel, 48 h
HS 578T breast = system: HS 578T breast
NCI-H226 lung = system: NCI-H226 lung
SW-620 colon = system: SW-620 colon
A498 renal = system: A498 renal
KM12 colon = system: KM12 colon
ACHN renal = system: ACHN renal
A549 NSCLC = system: A549 NSCLC
OVCAR-4 ovarian = system: OVCAR-4 ovarian
M14 melanoma = system: M14 melanoma
SNB-19 CNS = system: SNB-19 CNS
OVCAR-3 ovarian = system: OVCAR-3 ovarian
LOX IMVI melanoma = system: LOX IMVI melanoma
SK-MEL-28 melanoma = system: SK-MEL-28 melanoma
MDA-MB-231 breast = system: MDA-MB-231 breast
RXF 393 renal = system: RXF 393 renal
NCI/ADR-RES ovarian = system: NCI/ADR-RES ovarian
NCI-H460 lung = system: NCI-H460 lung
HOP-92 NSCLC = system: HOP-92 NSCLC
SK-MEL-5 melanoma = system: SK-MEL-5 melanoma
U251 CNS = system: U251 CNS
MOLT-4 leukemia = system: MOLT-4 leukemia
OVCAR-8 ovarian = system: OVCAR-8 ovarian
PC-3 prostate = system: PC-3 prostate
TK-10 renal = system: TK-10 renal
HCT-116 colon = system: HCT-116 colon
UACC-257 melanoma = system: UACC-257 melanoma
HOP-62 NSCLC = system: HOP-62 NSCLC
SNB-75 CNS = system: SNB-75 CNS
HCC-2998 colon = system: HCC-2998 colon
MDA-MB-435 = system: MDA-MB-435
SF-268 CNS = system: SF-268 CNS
SF-539 CNS = system: SF-539 CNS
786-0 renal = system: 786-0 renal
COLO 205 colon = system: COLO 205 colon
SK-OV-3 ovarian = system: SK-OV-3 ovarian
SN12C renal = system: SN12C renal
CAKI-1 renal = system: CAKI-1 renal
HT29 colon = system: HT29 colon
SR leukemia = system: SR leukemia
UACC-62 melanoma = system: UACC-62 melanoma
RPMI-8226 leukemia = system: RPMI-8226 leukemia
HCT-15 colon = system: HCT-15 colon
HL-60(TB) leukemia = system: HL-60(TB) leukemia
K-562 leukemia = system: K-562 leukemia
DU-145 prostate = system: DU-145 prostate
MCF7 breast = system: MCF7 breast
CCRF-CEM leukemia = system: CCRF-CEM leukemia
OVCAR-5 ovarian = system: OVCAR-5 ovarian
BT-549 breast = system: BT-549 breast
T-47D breast = system: T-47D breast
SK-MEL-2 melanoma = system: SK-MEL-2 melanoma

Structure (SMILES): [C-]#[N+][C@]12C(=O)[C@H](CCC1(C)C)C(C)(C)[C@H]1C(=O)N(C)c3cccc2c31
- GI50 (HS 578T breast): 68.5 µM
- TGI (HS 578T breast): > 100 µM
- GI50 (NCI-H226 lung): > 100 µM
- TGI (NCI-H226 lung): > 100 µM
- GI50 (SW-620 colon): 18.6 µM
- TGI (SW-620 colon): > 100 µM
- GI50 (A498 renal): 0.81 µM
- TGI (A498 renal): 74.2 µM
- GI50 (KM12 colon): 9.99 µM
- TGI (KM12 colon): > 100 µM
- GI50 (ACHN renal): 80.7 µM
- TGI (ACHN renal): > 100 µM
- GI50 (A549 NSCLC): 5.42 µM
- TGI (A549 NSCLC): > 100 µM
- GI50 (OVCAR-4 ovarian): 3.82 µM
- TGI (OVCAR-4 ovarian): > 100 µM
- GI50 (M14 melanoma): 29.9 µM
- TGI (M14 melanoma): > 100 µM
- GI50 (SNB-19 CNS): 70 µM
- TGI (SNB-19 CNS): > 100 µM
- GI50 (OVCAR-3 ovarian): 4.13 µM
- TGI (OVCAR-3 ovarian): > 100 µM
- GI50 (LOX IMVI melanoma): > 100 µM
- TGI (LOX IMVI melanoma): > 100 µM
- GI50 (SK-MEL-28 melanoma): > 100 µM
- TGI (SK-MEL-28 melanoma): > 100 µM
- GI50 (MDA-MB-231 breast): > 100 µM
- TGI (MDA-MB-231 breast): > 100 µM
- GI50 (RXF 393 renal): > 100 µM
- TGI (RXF 393 renal): > 100 µM
- GI50 (NCI/ADR-RES ovarian): > 100 µM
- TGI (NCI/ADR-RES ovarian): > 100 µM
- GI50 (NCI-H460 lung): 5.02 µM
- TGI (NCI-H460 lung): > 100 µM
- GI50 (HOP-92 NSCLC): 3.11 µM
- TGI (HOP-92 NSCLC): > 100 µM
- GI50 (SK-MEL-5 melanoma): 9.08 µM
- TGI (SK-MEL-5 melanoma): > 100 µM
- GI50 (U251 CNS): 7.08 µM
- TGI (U251 CNS): > 100 µM
- GI50 (MOLT-4 leukemia): 10.3 µM
- TGI (MOLT-4 leukemia): > 100 µM
- GI50 (OVCAR-8 ovarian): 13.8 µM
- TGI (OVCAR-8 ovarian): > 100 µM
- GI50 (PC-3 prostate): 3.27 µM
- TGI (PC-3 prostate): > 100 µM
- GI50 (TK-10 renal): > 100 µM
- TGI (TK-10 renal): > 100 µM
- GI50 (HCT-116 colon): 3.73 µM
- TGI (HCT-116 colon): > 100 µM
- GI50 (UACC-257 melanoma): 4.07 µM
- TGI (UACC-257 melanoma): > 100 µM
- GI50 (HOP-62 NSCLC): 9.6 µM
- TGI (HOP-62 NSCLC): > 100 µM
- GI50 (SNB-75 CNS): 64.3 µM
- TGI (SNB-75 CNS): > 100 µM
- GI50 (HCC-2998 colon): > 100 µM
- TGI (HCC-2998 colon): > 100 µM
- GI50 (MDA-MB-435): 24.7 µM
- TGI (MDA-MB-435): > 100 µM
- GI50 (SF-268 CNS): > 100 µM
- TGI (SF-268 CNS): > 100 µM
- GI50 (SF-539 CNS): 61.6 µM
- TGI (SF-539 CNS): > 100 µM
- GI50 (786-0 renal): > 100 µM
- TGI (786-0 renal): > 100 µM
- GI50 (COLO 205 colon): 5.06 µM
- TGI (COLO 205 colon): > 100 µM
- GI50 (SK-OV-3 ovarian): 44.4 µM
- TGI (SK-OV-3 ovarian): > 100 µM
- GI50 (SN12C renal): 41.9 µM
- TGI (SN12C renal): > 100 µM
- GI50 (CAKI-1 renal): 51.7 µM
- TGI (CAKI-1 renal): > 100 µM
- GI50 (HT29 colon): 17.6 µM
- TGI (HT29 colon): > 100 µM
- GI50 (SR leukemia): 6.52 µM
- TGI (SR leukemia): > 100 µM
- GI50 (UACC-62 melanoma): 22.8 µM
- TGI (UACC-62 melanoma): > 100 µM
- GI50 (RPMI-8226 leukemia): 13.1 µM
- TGI (RPMI-8226 leukemia): > 100 µM
- GI50 (HCT-15 colon): 58.5 µM
- TGI (HCT-15 colon): > 100 µM
- GI50 (HL-60(TB) leukemia): 4.07 µM
- TGI (HL-60(TB) leukemia): > 100 µM
- GI50 (K-562 leukemia): 4.8 µM
- TGI (K-562 leukemia): > 100 µM
- GI50 (DU-145 prostate): 61.6 µM
- TGI (DU-145 prostate): > 100 µM
- GI50 (MCF7 breast): 4.54 µM
- TGI (MCF7 breast): > 100 µM
- GI50 (CCRF-CEM leukemia): 5.84 µM
- TGI (CCRF-CEM leukemia): > 100 µM
- GI50 (OVCAR-5 ovarian): > 100 µM
- TGI (OVCAR-5 ovarian): > 100 µM
- GI50 (BT-549 breast): 46.2 µM
- TGI (BT-549 breast): > 100 µM
- GI50 (T-47D breast): 9.41 µM
- TGI (T-47D breast): > 100 µM
- GI50 (SK-MEL-2 melanoma): 30.6 µM
- TGI (SK-MEL-2 melanoma): > 100 µM
